Measured values as given in ChEMBL document CHEMBL1255529, “Design, synthesis, and anticancer activities of novel perfluoroalkyltriazole-appended 2'-deoxyuridines” (Bioorg Med Chem Lett, 2010).

Experiments:
[1] = tested on: ACHN; test: Anticancer activity against human ACHN cells by SRB assay; assay type: functional; settings: for GI50: Homo sapiens, ACHN
[2] = Antiproliferative activity against human CCD-33Lu
[3] = tested on: PC-3; test: Anticancer activity against human PC3 cells by SRB assay; assay type: functional; settings: for GI50: Homo sapiens, PC-3
[4] = tested on: MDA-MB-231; test: Anticancer activity against human MDA-MB-231 cells by SRB assay; assay type: functional; settings: for GI50: Homo sapiens, MDA-MB-231

Row | SMILES | GI [1] | GI50 [1] | Activity [2] | GI [3] | GI50 [3] | GI [4] | GI50 [4]
1 | O=c1[nH]c(=O)n([C@H]2C[C@H](O)[C@@H](CO)O2)cc1-c1cn(CCC(F)(F)C(F)(F)C(F)(F)C(F)(F)C(F)(F)C(F)(F)C(F)(F)C(F)(F)F)nn1 | 14.2 µM | 8240 nM | Non-toxic | 16.7 µM | 7750 nM | 15.9 µM | 8670 nM
2 | CC(=O)OC[C@H]1O[C@@H](n2cc(-c3cn(CCC(F)(F)C(F)(F)C(F)(F)C(F)(F)C(F)(F)C(F)(F)C(F)(F)C(F)(F)F)nn3)c(=O)[nH]c2=O)C[C@@H]1OC(C)=O | 110.8 µM | – | – | 77.9 µM | – | 99.1 µM | –
3 | CC(=O)OC[C@H]1O[C@@H](n2cc(-c3cn(CCC(F)(F)C(F)(F)C(F)(F)C(F)(F)C(F)(F)C(F)(F)F)nn3)c(=O)[nH]c2=O)C[C@@H]1OC(C)=O | 113.8 µM | – | – | 89.4 µM | – | 99.4 µM | –
4 | O=c1[nH]c(=O)n([C@H]2C[C@H](O)[C@@H](CO)O2)cc1-c1cn(CCC(F)(F)C(F)(F)C(F)(F)C(F)(F)F)nn1 | 116 µM | – | – | 97.8 µM | – | 109.7 µM | –
5 | COc1cccc2c1C(=O)c1c(O)c3c(c(O)c1C2=O)C[C@@](O)(C(=O)CO)C[C@@H]3O[C@H]1C[C@H](N)[C@H](O)[C@H](C)O1 [DOXORUBICIN] | 12.3 µM | 220 nM | – | 28.5 µM | 280 nM | 16.5 µM | 180 nM
6 | O=c1[nH]c(=O)n([C@H]2C[C@H](O)[C@@H](CO)O2)cc1-c1cn(CCC(F)(F)C(F)(F)C(F)(F)C(F)(F)C(F)(F)C(F)(F)F)nn1 | 99.3 µM | – | – | 114.5 µM | – | 106.5 µM | –
7 | O=c1[nH]c(=O)n([C@H]2C[C@H](O)[C@@H](CO)O2)cc1-c1cn(CCC(F)(F)C(F)(F)F)nn1 | 96.1 µM | – | – | 96.4 µM | – | 98.7 µM | –
8 | O=c1[nH]c(=O)n([C@H]2C[C@H](O)[C@@H](CO)O2)cc1-c1cn(CCC(F)(F)C(F)(F)C(F)(F)C(F)(F)C(F)(F)C(F)(F)C(F)(F)C(F)(F)C(F)(F)C(F)(F)F)nn1 | 90.8 µM | – | – | 89.4 µM | – | 93.7 µM | –
9 | O=c1[nH]c(=O)n([C@H]2C[C@H](O)[C@@H](CO)O2)cc1F [FLOXURIDINE] | 25.8 µM | 2100 nM | – | 40.7 µM | 4970 nM | – | 160 nM
